Results from patent publication US8273754B2, “Substituted 1H-pyrazolo[3,4-D]pyrimidine-6-amine compounds” (ArQule, Inc., priority 2008, dated 2012).
Like-named read-outs stand apart in the source and are kept apart here.

System: cancer cells
Assay: MTS cell growth inhibition assay (72 hours)
Assay type: cell-based
How it was run: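 Cells in DMEM with 1% FBS, seeded 18 h, then compound-treated 72 h at 37 °C. Viability by MTS/PMS for 4 h, formazan absorbance at 492 nm; IC50 taken as concentration giving 50% absorbance drop, activity banded by percent inhibition.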

[1] = Homo sapiens, DLD-1, 72 h, DLD-1 cells, read-out: DLD-1 MTS 72 hr at 10 μM
[2] = Homo sapiens, KATO III, 72 h, KATO III cells, read-out: KATO III MTS 72 hr at 10 μM
[3] = Homo sapiens, MDA-MB-231, 72 h, MDA-MB-231 cells, read-out: MDA-MB-231 MTS 72 hr at 10 μM
[4] = Homo sapiens, NCI-H1299, 72 h, NCI-H1299 cells, read-out: NCI-H1299 MTS 72 hr at 10 μM
[5] = PaCa-2, 72 h, PACA-2 cells, read-out: PACA-2 MTS 72 hr at 10 μM

| Compound | inhibition at 10 µM [1] [%] | inhibition at 10 µM [2] [%] | inhibition at 10 µM [3] [%] | inhibition at 10 µM [4] [%] | inhibition at 10 µM [5] [%] |
| --- | --- | --- | --- | --- | --- |
| Nc1nc(NC2CCN(S(=O)(=O)c3ccc(Cl)c(Cl)c3)c3ccccc3C2)c2cn[nH]c2n1 (centres unmarked) [Compound 179, N4-{1-[(3,4-dichlorophenyl)sulfonyl]-2,3,4,5-tetrahydro-1H-1-benzazepin-4-yl}-1H-pyrazolo[3,4-d]pyrimidine-4,6-diamine] | 50 to 79 | 50 to 79 | < 50 | < 50 | < 50 |
| COc1cc(CN2CC(Nc3nc(N)nc4[nH]ncc34)Cc3ccccc32)ccc1OCc1ccccc1 (centres unmarked) [Compound 156, N4-{1-[4-(benzyloxy)-3-methoxybenzyl]-1,2,3,4-tetrahydroquinolin-3-yl}-1H-pyrazolo[3,4-d]pyrimidine-4,6-diamine] | 50 to 79 | < 50 | < 50 | < 50 | < 50 |
| Nc1nc(NC2Cc3ccccc3N(S(=O)(=O)c3ccc(C(F)(F)F)cc3)C2)c2cn[nH]c2n1 (centres unmarked) [Compound 44, N4-(1-(4-(trifluoromethyl)phenylsulfonyl)-1,2,3,4-tetrahydroquinolin-3-yl)-1H-pyrazolo[3,4-d]pyrimidine-4,6-diamine] | < 50 | < 50 | < 50 | < 50 | < 50 |
| Nc1nc(NC2Cc3ccccc3N(S(=O)(=O)c3cccc(NC(=O)Nc4cccc(Cl)c4)c3)C2)c2cn[nH]c2n1 (centres unmarked) [Compound 201, 1-[3-({3-[(6-amino-1H-pyrazolo[3,4-d]pyrimidin-4-yl)amino]-3,4-dihydroquinolin-1(2H)-yl}sulfonyl)phenyl]-3-(3-chlorophenyl)urea] | > 79 | > 79 | > 79 | > 79 | > 79 |
| Nc1nc(NC2Cc3ccccc3N(Cc3cn(-c4ccccc4)nc3-c3ccccc3)C2)c2cn[nH]c2n1 (centres unmarked) [Compound 151, N4-{1-[(1,3-diphenyl-1H-pyrazol-4-yl)methyl]-1,2,3,4-tetrahydroquinolin-3-yl}-1H-pyrazolo[3,4-d]pyrimidine-4,6-diamine] | > 79 | > 79 | < 50 | < 50 | > 79 |
| Nc1nc(NC2Cc3ccccc3N(C(=O)c3ccccc3Br)C2)c2cn[nH]c2n1 (centres unmarked) [Compound 81, (3-(6-amino-1H-pyrazolo[3,4-d]pyrimidin-4-ylamino)-3,4-dihydroquinolin-1(2H)-yl)(2-bromophenyl)methanone] | 50 to 79 | > 79 | > 79 | < 50 | 50 to 79 |
| Nc1nc(NC2Cc3ccccc3N(C(=O)Cc3ccccc3)C2)c2cn[nH]c2n1 (centres unmarked) [Compound 87, 1-(3-(6-amino-1H-pyrazolo[3,4-d]pyrimidin-4-ylamino)-3,4-dihydroquinolin-1(2H)-yl)-2-phenylethanone] | < 50 | < 50 | < 50 | < 50 | < 50 |
| Nc1nc(NC2Cc3ccccc3N(Cc3ccccc3Oc3ccccc3)C2)c2cn[nH]c2n1 (centres unmarked) [Compound 149, N4-[1-(2-phenoxybenzyl)-1,2,3,4-tetrahydroquinolin-3-yl]-1H-pyrazolo[3,4-d]pyrimidine-4,6-diamine] | > 79 | 50 to 79 | < 50 | < 50 | < 50 |
| Nc1nc(NC2Cc3ccccc3N(C(=O)c3cccs3)C2)c2cn[nH]c2n1 (centres unmarked) [Compound 79, (3-(6-amino-1H-pyrazolo[3,4-d]pyrimidin-4-ylamino)-3,4-dihydroquinolin-1(2H)-yl)(thiophen-2-yl)methanone] | > 79 | > 79 | 50 to 79 | < 50 | > 79 |
| Cc1ccc(C)c(S(=O)(=O)N2CCC(Nc3nc(N)nc4[nH]ncc34)Cc3ccccc32)c1 (centres unmarked) [Compound 184, N4-{1-[(2,5-dimethylphenyl)sulfonyl]-2,3,4,5-tetrahydro-1H-1-benzazepin-4-yl}-1H-pyrazolo[3,4-d]pyrimidine-4,6-diamine] | < 50 | < 50 | < 50 | < 50 | < 50 |
| CC(C)c1cccc(C(C)C)c1NC(=O)N1CC(Nc2nc(N)nc3[nH]ncc23)Cc2ccccc21 (centres unmarked) [Compound 112, 3-(6-amino-1H-pyrazolo[3,4-d]pyrimidin-4-ylamino)-N-(2,6-diisopropylphenyl)-3,4-dihydroquinoline-1(2H)-carboxamide] | < 50 | < 50 | < 50 | < 50 | < 50 |
| Cc1ccc(F)c(CN2CC(Nc3nc(N)nc4[nH]ncc34)Cc3ccccc32)c1 (centres unmarked) [Compound 135, N4-[1-(2-fluoro-5-methylbenzyl)-1,2,3,4-tetrahydroquinolin-3-yl]-1H-pyrazolo[3,4-d]pyrimidine-4,6-diamine] | > 79 | > 79 | 50 to 79 | 50 to 79 | > 79 |
| Nc1nc(NC2Cc3ccccc3N(C(=O)c3cc(Cl)cc(Cl)c3)C2)c2cn[nH]c2n1 (centres unmarked) [Compound 90, (3-(6-amino-1H-pyrazolo[3,4-d]pyrimidin-4-ylamino)-3,4-dihydroquinolin-1(2H)-yl)(3,5-dichlorophenyl)methanone] | > 79 | > 79 | > 79 | > 79 | > 79 |
| COc1ccc(OC)c(CC(=O)N2CC(Nc3nc(N)nc4[nH]ncc34)Cc3ccccc32)c1 (centres unmarked) [Compound 105, 1-(3-(6-amino-1H-pyrazolo[3,4-d]pyrimidin-4-ylamino)-3,4-dihydroquinolin-1(2H)-yl)-2-(2,5-dimethoxyphenyl)ethanone] | < 50 | < 50 | < 50 | < 50 | < 50 |
| Nc1nc(NC2CCN(S(=O)(=O)c3ccccc3)c3ccccc3C2)c2cn[nH]c2n1 (centres unmarked) [Compound 166, N^4-(1-(phenylsulfonyl)-2,3,4,5-tetrahydro-1H-benzo[b]azepin-4-yl)-1H-pyrazolo[3,4-d]pyrimidine-4,6-diamine] | < 50 | < 50 | < 50 | < 50 | < 50 |
| Nc1nc(NC2Cc3ccccc3N(C(=O)CCc3ccccc3)C2)c2cn[nH]c2n1 (centres unmarked) [Compound 102, 1-(3-(6-amino-1H-pyrazolo[3,4-d]pyrimidin-4-ylamino)-3,4-dihydroquinolin-1(2H)-yl)-3-phenylpropan-1-one] | < 50 | < 50 | < 50 | < 50 | < 50 |
| Nc1nc(NC2Cc3ccccc3N(C(=O)c3c(F)cccc3Cl)C2)c2cn[nH]c2n1 (centres unmarked) [Compound 99, (3-(6-amino-1H-pyrazolo[3,4-d]pyrimidin-4-ylamino)-3,4-dihydroquinolin-1(2H)-yl)(2-chloro-6-fluorophenyl)methanone] | < 50 | < 50 | < 50 | < 50 | < 50 |
| Nc1nc(NC2Cc3ccccc3N(S(=O)(=O)c3cccc(NC(=O)Nc4cccc(Cl)c4Cl)c3)C2)c2cn[nH]c2n1 (centres unmarked) [Compound 211, 1-[3-({3-[(6-amino-1H-pyrazolo[3,4-d]pyrimidin-4-yl)amino]-3,4-dihydroquinolin-1(2H)-yl}sulfonyl)phenyl]-3-(2,3-dichlorophenyl)urea] | > 79 | > 79 | > 79 | > 79 | > 79 |
| N#Cc1cccc(CN2CC(Nc3nc(N)nc4[nH]ncc34)Cc3ccccc32)c1 (centres unmarked) [Compound 145, 3-({3-[(6-amino-1H-pyrazolo[3,4-d]pyrimidin-4-yl)amino]-3,4-dihydroquinolin-1(2H)-yl}methyl)benzonitrile] | > 79 | > 79 | > 79 | > 79 | > 79 |
| COc1ccc(-n2ncc(CN3CC(Nc4nc(N)nc5[nH]ncc45)Cc4ccccc43)c2C)cc1 (centres unmarked) [Compound 157, N4-(1-{[1-(4-methoxyphenyl)-5-methyl-1H-pyrazol-4-yl]methyl}-1,2,3,4-tetrahydroquinolin-3-yl)-1H-pyrazolo[3,4-d]pyrimidine-4,6-diamine] | < 50 | 50 to 79 | < 50 | < 50 | < 50 |
| Nc1nc(NC2Cc3ccccc3N(S(=O)(=O)c3cccc(NC(=O)Nc4c(F)cccc4C(F)(F)F)c3)C2)c2cn[nH]c2n1 (centres unmarked) [Compound 204, 1-[3-({3-[(6-amino-1H-pyrazolo[3,4-d]pyrimidin-4-yl)amino]-3,4-dihydroquinolin-1(2H)-yl}sulfonyl)phenyl]-3-[2-fluoro-6-(trifluoromethyl)phenyl]urea] | < 50 | < 50 | < 50 | < 50 | 50 to 79 |
| Nc1nc(NC2Cc3ccccc3N(C(=O)C3CCC3)C2)c2cn[nH]c2n1 (centres unmarked) [Compound 103, (3-(6-amino-1H-pyrazolo[3,4-d]pyrimidin-4-ylamino)-3,4-dihydroquinolin-1(2H)-yl)(cyclobutyl)methanone] | > 79 | > 79 | > 79 | > 79 | > 79 |
